Results as given in PubChem BioAssay (NCI).
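Five concentrations, 48 hours, 96-well plates. At the GI50, growth is halved. Definition used: TGI = concentration required for complete inhibition of growth.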

Assays:
Test in all cases: growth of human tumour cells (NCI), 48 h; in the data active = GI50 below about 0.43 µM; inactive = the rest
HCC-2998 colon = system: HCC-2998 colon
DU-145 prostate = system: DU-145 prostate
SF-268 CNS = system: SF-268 CNS
CCRF-CEM leukemia = system: CCRF-CEM leukemia
KM12 colon = system: KM12 colon
M14 melanoma = system: M14 melanoma
SK-MEL-5 melanoma = system: SK-MEL-5 melanoma
MDA-MB-435 = system: MDA-MB-435
EKVX NSCLC = system: EKVX NSCLC
HOP-92 NSCLC = system: HOP-92 NSCLC
NCI/ADR-RES ovarian = system: NCI/ADR-RES ovarian
SW-620 colon = system: SW-620 colon
LOX IMVI melanoma = system: LOX IMVI melanoma
BT-549 breast = system: BT-549 breast
K-562 leukemia = system: K-562 leukemia
HT29 colon = system: HT29 colon
NCI-H23 lung = system: NCI-H23 lung
786-0 renal = system: 786-0 renal
OVCAR-4 ovarian = system: OVCAR-4 ovarian
NCI-H460 lung = system: NCI-H460 lung
SK-MEL-2 melanoma = system: SK-MEL-2 melanoma
TK-10 renal = system: TK-10 renal
A549 NSCLC = system: A549 NSCLC
SN12C renal = system: SN12C renal
SF-295 CNS = system: SF-295 CNS
CAKI-1 renal = system: CAKI-1 renal
OVCAR-5 ovarian = system: OVCAR-5 ovarian
UACC-62 melanoma = system: UACC-62 melanoma
OVCAR-8 ovarian = system: OVCAR-8 ovarian
T-47D breast = system: T-47D breast
COLO 205 colon = system: COLO 205 colon
MALME-3M melanoma = system: MALME-3M melanoma
SNB-75 CNS = system: SNB-75 CNS
HCT-116 colon = system: HCT-116 colon
ACHN renal = system: ACHN renal
IGROV1 ovarian = system: IGROV1 ovarian
HS 578T breast = system: HS 578T breast
SR leukemia = system: SR leukemia
HOP-62 NSCLC = system: HOP-62 NSCLC
RXF 393 renal = system: RXF 393 renal
U251 CNS = system: U251 CNS
MOLT-4 leukemia = system: MOLT-4 leukemia
HCT-15 colon = system: HCT-15 colon
RPMI-8226 leukemia = system: RPMI-8226 leukemia
PC-3 prostate = system: PC-3 prostate
SK-OV-3 ovarian = system: SK-OV-3 ovarian
MCF7 breast = system: MCF7 breast
NCI-H226 lung = system: NCI-H226 lung
SF-539 CNS = system: SF-539 CNS
UACC-257 melanoma = system: UACC-257 melanoma
HL-60(TB) leukemia = system: HL-60(TB) leukemia
MDA-MB-231 breast = system: MDA-MB-231 breast
SNB-19 CNS = system: SNB-19 CNS
UO-31 renal = system: UO-31 renal
SK-MEL-28 melanoma = system: SK-MEL-28 melanoma
A498 renal = system: A498 renal
NCI-H522 lung = system: NCI-H522 lung

Oc1ccc(CSc2nnc(-c3ccccc3)n2-c2ccccc2)c2cccnc12
4320 nM: TGI (T-47D breast)
6190 nM: TGI (MALME-3M melanoma)
> 43400 nM: TGI (CCRF-CEM leukemia)
6810 nM: TGI (SK-OV-3 ovarian)
3630 nM: TGI (UACC-62 melanoma)
25400 nM: TGI (SN12C renal)
6090 nM: TGI (SK-MEL-2 melanoma)
2340 nM: TGI (NCI/ADR-RES ovarian)
11700 nM: TGI (A498 renal)
6650 nM: TGI (UACC-257 melanoma)
6400 nM: TGI (EKVX NSCLC)
21100 nM: TGI (SF-268 CNS)
5090 nM: TGI (786-0 renal)
11000 nM: TGI (NCI-H23 lung)
6910 nM: TGI (HL-60(TB) leukemia)
55200 nM: TGI (SK-MEL-28 melanoma)
9460 nM: TGI (U251 CNS)
inactive: GI50 (HCC-2998 colon) 728 nM | GI50 (DU-145 prostate) 605 nM | GI50 (SF-268 CNS) 519 nM | GI50 (KM12 colon) 534 nM | GI50 (SK-MEL-5 melanoma) 522 nM | GI50 (MDA-MB-435) 439 nM | GI50 (EKVX NSCLC) 771 nM | GI50 (SW-620 colon) 443 nM | GI50 (LOX IMVI melanoma) 485 nM | GI50 (BT-549 breast) 590 nM | GI50 (HT29 colon) 3960 nM | GI50 (NCI-H23 lung) 541 nM | GI50 (786-0 renal) 923 nM | GI50 (OVCAR-4 ovarian) 706 nM | GI50 (SK-MEL-2 melanoma) 621 nM | GI50 (TK-10 renal) 514 nM | GI50 (A549 NSCLC) 644 nM | GI50 (CAKI-1 renal) 559 nM | GI50 (OVCAR-5 ovarian) 2880 nM | GI50 (UACC-62 melanoma) 713 nM | GI50 (T-47D breast) 625 nM | GI50 (COLO 205 colon) 4790 nM | GI50 (MALME-3M melanoma) 1150 nM | GI50 (SNB-75 CNS) 673 nM | GI50 (IGROV1 ovarian) 557 nM | GI50 (HS 578T breast) 433 nM | GI50 (HOP-62 NSCLC) 449 nM | GI50 (RXF 393 renal) 887 nM | GI50 (MOLT-4 leukemia) 480 nM | GI50 (RPMI-8226 leukemia) 448 nM | GI50 (PC-3 prostate) 440 nM | GI50 (SK-OV-3 ovarian) 481 nM | GI50 (NCI-H226 lung) 1900 nM | GI50 (SF-539 CNS) 427 nM | GI50 (UACC-257 melanoma) 811 nM | GI50 (MDA-MB-231 breast) 620 nM | GI50 (SK-MEL-28 melanoma) 614 nM | GI50 (A498 renal) 1520 nM
12100 nM: TGI (HS 578T breast)
> 22800 nM: TGI (OVCAR-8 ovarian)
4670 nM: TGI (TK-10 renal)
active: GI50 (CCRF-CEM leukemia) 396 nM | GI50 (M14 melanoma) 405 nM | GI50 (HOP-92 NSCLC) 227 nM | GI50 (NCI/ADR-RES ovarian) 285 nM | GI50 (K-562 leukemia) 403 nM | GI50 (NCI-H460 lung) 351 nM | GI50 (SN12C renal) 416 nM | GI50 (SF-295 CNS) 406 nM | GI50 (OVCAR-8 ovarian) 377 nM | GI50 (HCT-116 colon) 362 nM | GI50 (ACHN renal) 364 nM | GI50 (SR leukemia) 404 nM | GI50 (U251 CNS) 298 nM | GI50 (HCT-15 colon) 348 nM | GI50 (MCF7 breast) 348 nM | GI50 (HL-60(TB) leukemia) 376 nM | GI50 (SNB-19 CNS) 395 nM | GI50 (UO-31 renal) 315 nM | GI50 (NCI-H522 lung) 402 nM
> 39700 nM: TGI (K-562 leukemia)
> 79200 nM: TGI (NCI-H226 lung)
11400 nM: TGI (MDA-MB-231 breast)
3270 nM: TGI (SF-539 CNS)
4870 nM: TGI (HCT-116 colon)
> 47700 nM: TGI (PC-3 prostate)
4280 nM: TGI (SF-295 CNS)
> 70200 nM: TGI (MCF7 breast)
787 nM: TGI (HOP-92 NSCLC)
3220 nM: TGI (SK-MEL-5 melanoma)
2440 nM: TGI (M14 melanoma)
2820 nM: TGI (LOX IMVI melanoma)
13000 nM: TGI (OVCAR-4 ovarian) | TGI (IGROV1 ovarian)
3470 nM: TGI (NCI-H460 lung)
6120 nM: TGI (RXF 393 renal)
1290 nM: TGI (ACHN renal)
> 26000 nM: TGI (BT-549 breast)
> 33300 nM: TGI (A549 NSCLC)
5150 nM: TGI (SNB-75 CNS)
7190 nM: TGI (NCI-H522 lung)
> 100000 nM: TGI (HCC-2998 colon) | TGI (KM12 colon) | TGI (MDA-MB-435) | TGI (SW-620 colon) | TGI (HT29 colon) | TGI (OVCAR-5 ovarian) | TGI (COLO 205 colon) | TGI (SR leukemia) | TGI (MOLT-4 leukemia) | TGI (HCT-15 colon) | TGI (RPMI-8226 leukemia)
14200 nM: TGI (SNB-19 CNS)
3440 nM: TGI (CAKI-1 renal)
7910 nM: TGI (HOP-62 NSCLC)
1560 nM: TGI (UO-31 renal)
22200 nM: TGI (DU-145 prostate)

Oc1ccc(CSc2nnc(-c3ccc(Oc4ccccc4)cc3)o2)c2cccnc12
> 100000 nM: TGI (HCC-2998 colon) | TGI (DU-145 prostate) | TGI (SF-268 CNS) | TGI (CCRF-CEM leukemia) | TGI (KM12 colon) | TGI (M14 melanoma) | TGI (SK-MEL-5 melanoma) | TGI (MDA-MB-435) | TGI (EKVX NSCLC) | TGI (BT-549 breast) | TGI (K-562 leukemia) | TGI (HT29 colon) | TGI (A549 NSCLC) | TGI (SN12C renal) | TGI (CAKI-1 renal) | TGI (OVCAR-5 ovarian) | TGI (UACC-62 melanoma) | TGI (OVCAR-8 ovarian) | TGI (COLO 205 colon) | TGI (MALME-3M melanoma) | TGI (IGROV1 ovarian) | TGI (SR leukemia) | TGI (RXF 393 renal) | TGI (MOLT-4 leukemia) | TGI (HCT-15 colon) | TGI (RPMI-8226 leukemia) | TGI (PC-3 prostate) | TGI (MCF7 breast) | TGI (NCI-H226 lung) | TGI (UACC-257 melanoma) | TGI (HL-60(TB) leukemia) | TGI (SNB-19 CNS) | TGI (SK-MEL-28 melanoma) | TGI (A498 renal) | TGI (NCI-H522 lung)
21800 nM: TGI (SK-OV-3 ovarian)
3920 nM: TGI (SNB-75 CNS)
active: GI50 (K-562 leukemia) 368 nM | GI50 (HCT-116 colon) 420 nM | GI50 (SR leukemia) 370 nM | GI50 (HCT-15 colon) 368 nM | GI50 (SNB-19 CNS) 421 nM | GI50 (UO-31 renal) 373 nM
44900 nM: TGI (NCI-H23 lung)
27400 nM: TGI (HS 578T breast)
5880 nM: TGI (786-0 renal)
inactive: GI50 (HCC-2998 colon) 1040 nM | GI50 (DU-145 prostate) 3270 nM | GI50 (SF-268 CNS) 659 nM | GI50 (CCRF-CEM leukemia) 498 nM | GI50 (KM12 colon) 2650 nM | GI50 (M14 melanoma) 621 nM | GI50 (SK-MEL-5 melanoma) 1270 nM | GI50 (MDA-MB-435) 713 nM | GI50 (EKVX NSCLC) 515 nM | GI50 (HOP-92 NSCLC) 1410 nM | GI50 (NCI/ADR-RES ovarian) 489 nM | GI50 (BT-549 breast) 905 nM | GI50 (HT29 colon) > 100000 nM | GI50 (NCI-H23 lung) 739 nM | GI50 (786-0 renal) 1020 nM | GI50 (OVCAR-4 ovarian) 1770 nM | GI50 (SK-MEL-2 melanoma) 3560 nM | GI50 (TK-10 renal) 2450 nM | GI50 (A549 NSCLC) 1680 nM | GI50 (SN12C renal) 2130 nM | GI50 (SF-295 CNS) 877 nM | GI50 (CAKI-1 renal) 1880 nM | GI50 (OVCAR-5 ovarian) 8020 nM | GI50 (UACC-62 melanoma) 2410 nM | GI50 (OVCAR-8 ovarian) 633 nM | GI50 (T-47D breast) 2170 nM | GI50 (COLO 205 colon) > 100000 nM | GI50 (MALME-3M melanoma) 4540 nM | GI50 (SNB-75 CNS) 595 nM | GI50 (ACHN renal) 565 nM | GI50 (IGROV1 ovarian) 645 nM | GI50 (HS 578T breast) 612 nM | GI50 (HOP-62 NSCLC) 682 nM | GI50 (RXF 393 renal) 3550 nM | GI50 (U251 CNS) 460 nM | GI50 (MOLT-4 leukemia) 1280 nM | GI50 (RPMI-8226 leukemia) 458 nM | GI50 (PC-3 prostate) 561 nM | GI50 (SK-OV-3 ovarian) 1920 nM | GI50 (MCF7 breast) 497 nM | GI50 (NCI-H226 lung) 15300 nM | GI50 (SF-539 CNS) 689 nM | GI50 (UACC-257 melanoma) 15700 nM | GI50 (HL-60(TB) leukemia) 668 nM | GI50 (MDA-MB-231 breast) 1490 nM | GI50 (SK-MEL-28 melanoma) 4800 nM | GI50 (A498 renal) 8410 nM | GI50 (NCI-H522 lung) 4990 nM
2140 nM: TGI (ACHN renal)
9850 nM: TGI (HOP-62 NSCLC)
8010 nM: TGI (OVCAR-4 ovarian)
24900 nM: TGI (HOP-92 NSCLC)
7490 nM: TGI (SF-295 CNS)
4400 nM: TGI (HCT-116 colon)
2700 nM: TGI (U251 CNS)
2380 nM: TGI (UO-31 renal)
84600 nM: TGI (NCI/ADR-RES ovarian)
90200 nM: TGI (SK-MEL-2 melanoma)
69800 nM: TGI (TK-10 renal)
79900 nM: TGI (MDA-MB-231 breast)
9120 nM: TGI (T-47D breast)
55500 nM: TGI (SF-539 CNS)
